Assay results: US20250340941A1, “ASSAY AND METHODS FOR DRUG DISCOVERY” (BIOVIE INC., priority 2023, published 2025)

Columns and labels:
[1] = test system: TNFR1 phosphorylation in THP-1 human monocytes; experiment: TNFa-stimulated TNFR1 ERK-dependent phosphorylation, Western blot densitometry; type: cell-based; conditions: THP-1, TNFa 50 ng/mL
Method: THP-1 monocytes were treated with 100 nM NE3107, 1 uM IKK-16 (IKK inhibitor), 1 uM Tpl2 Kinase inhibitor (TPL2i) or Vehicle (0.1% DMSO) and stimulated with TNFa 50 ng/mL. Cell lysates were collected at 0, 2, 5, 10, 15, and 30 minutes. The results are given as fold change with respect to the control following Western blotting and quantification of band intensities by densitometry scanning.
THP-1 human monocytes were grown in complete growth medium (ATCC-formulated RPMI-1640 Medium, Catalog No. 30-2001), 2-mercaptoethanol to a final concentration of 0.05 mM and fetal bovine serum to final concentration of 10%. THP-1 human monocytes were then seeded into 10 mL complete growth medium at 0.4×10^6/mL in a T25 flask and were grown to 0.8×10^6/mL in about 1 to 2 days. The cells were then starved in 0.5% FBS RPMI for 16 h. The THP-1 monocytes were then treated with 100 nM 17α-ethynylandrost-5-ene-3ϕ3,7ϕ3,17ϕ3-triol (NE3107), 1 μM IKK-16 (IKK inhibitor), 1 μM Tpl2 Kinase inhibitor (TPL2i) or 0.1% DMSO (vehicle). Cells were stimulated with stimulated with 50 ng/mL TNFa and cell lysates were collected at 0, 2, 5, 10, 15, and 30 minutes after TNFa stimulation. Total cell lysates were subjected to Western blotting as described in Lu et al., Mol. Endocrinol. 22 (2008), 760-771. Relative band intensities were quantified by densitometry scanning. The results are given as fold change with respect to untreated cells in Table 2.

[2] = Phase 3 trial (NM101, NCT04669028): metabolic changes, blinded assessment; type: in vivo, human
Text: In this example, the clinical outcomes from a Phase 3, randomized, placebo-controlled trial of NE3107 (17α-ethynylandrost-5-ene-3ϕ3,7ϕ3,17ϕ3-triol) in subjects with mild to moderate probable Alzheimer's disease.
Recently, the roles of inflammation and insulin resistance in neurodegeneration have become better appreciated. […] We describe the rationale and design of NM101, the first randomized, multicenter Phase III clinical study to examine the safety and efficacy of 30-week treatment with NE3107 versus placebo in elderly adults with mild-to-moderate Alzheimer's disease. Patients (316) will be randomized in a 1:1 ratio. The co-primary end points measure cognitive function and functional and behavioral characteristics (Clinical Dementia Rating Scale Sum of Boxes, CDR-SB) and cognitive function (ADAS Cog12). Trial registration number: NCT04669028 (Clinicaltrials.gov).
Subjects metabolic and correlation changes were analyzed. Many of the genes associated with LOAD (late onset Alzheimer's disease) are related to cholesterol metabolism, which is decreased in AD neuron membranes. Insulin and glycemic controls are known to be involved in neurodegeneration. […] Increased mean amplitude of glycemic excursion (MAGE from CGM) increased risk of Alzheimer's disease progression. Leptin is an anti-inflammatory, neuroprotective and is decreased in AD. […] The results are described in Tables 4 and 5.

[3] = Phase 3 trial: neuropsychiatric inventory; type: in vivo, human; conditions: Phase 3, blinded analysis (NE3107 and placebo not separated)
Method: Subjects were analyzed for neuropsychiatric inventory. […] An improvement in appetite was also correlated with decreased Cog12, CDR SB and ADCOMS, with increased Alzheimer's disease. A decrease in anxiety was correlated with an increase ADL and decreased CGIC. Sleep improvement was correlated with a decrease in CGIC and decreased in TNFa. The results are described in Table 8 and FIGS. 6A-6B.

[4] = Phase 3 trial: FDG-PET imaging; type: in vivo, human; conditions: Phase 3, blinded analysis; subjects with a baseline whole cortex suvr <1.29, n/N
Method: Subjects were analyzed using a fluorodeoxyglucose (FDG)-positron emission tomography (PET) imaging scans. FDG-PET standardized uptake value ratios (“suvr”) were increased in 14/24 subjects with a baseline whole cortex suvr <1.29. […] Cholesterol increases trended with increased Cingulate suvr. The results are described in Table 7 and FIG. 5.

[5] = test system: Horvath Clock DNA methylation (DNAm); experiment: Horvath Clock DNA methylation (DNAm) epigenetic analysis of whole blood, 3-month open-label phase 2 study (NCT05007820); type: in vivo, human
Text: NE3107 is an oral small molecule, blood-brain permeable anti-inflammatory insulin sensitizer that binds ERK, inhibits NFKB and TNF signaling, and is in clinical studies for Probable AD (NCT04669028) and Parkinson's disease (NCT05083260). Safety, clinical, biomarker and neuroimaging results from a 3-month open-label phase 2 study of NE3107 treatment of MCI and probable AD (NCT05007820) were reported at CTAD (2022 J. Prev. Alzheimers Dis 9 S86, S140 and S27). In this example, the inventors determined the results of epigenetic clock studies from NCT05007820.
Methods: Subjects with clinical dementia rating (CDR) 0.5-1 were consented, and whole blood was drawn, frozen and shipped for Horvath Clock DNA methylation (DNAm) epigenetic analysis (Horvath 2018 Aging 10:1758) at baseline and 3 months.
(§1) Result: The subject's SkinBloodAge clock closely matched their chronological age at baseline (mean 71.5 vs 70.8 years). After 3 months of NE3107 (20 mg BID), the SkinBloodAge decreased by a mean of 3.3 years (Table). […] Leptin is reportedly lower in AD, and DNAmLeptin is reported to be positively correlated with metabolic parameters waist/hip ratio, BMI, CRP, insulin, glucose and triglycerides (Lu 2022 Aging 14:9884). […] DNAmPack Years is reported to be negatively correlated with time to mortality in both smokers and nonsmokers, and positively correlated with waist/hip ratio, CRP and triglycerides. Monocyte DNAm was correlated with monocyte frequency at baseline, and although it is reported to increases with chronological age, it decreased (−29%) in 77% of subjects after 3 months treatment. […]

[6] = Phase 3 trial: adverse events; type: in vivo, human; conditions: blinded (IP or placebo not known)
Text: Of the 439 subjects enrolled in the study, 156 experienced 1 or more AEs (35.5%). There were only 43 (9.8%) related AEs with the majority 42 […] categorized as non-serious AEs by the principal investigator. The study also had very low rate of serious AEs reported. There were 12 (2.7%) reported for the duration of the study. […] As this is a blinded analysis it is not known if the subjects was on IP or placebo.

[7] = Phase 3 trial: imaging sub-study vMRI; type: in vivo, human; conditions: Phase 3 imaging sub-study, 23 subjects, blinded analysis; result in words
Method: Subjects were analyzed using imaging sub-studies vMRI on 23 subjects. It was observed that the volume was increased in the hippocampus and amygdala. In addition, it was observed that a decreased CGIC was correlated with decreased hippocampi volume and increased MCP-1 was correlated with increased whole cortex. The results are described in FIGS. 4A-4B and Table 6.

Monocytes = experiment: Blood monocyte frequency, 3-month open-label phase 2 study; type: in vivo, human
Method: as §1

[8] = Phase 3, blinded analysis (NE3107 and placebo not separated)
[9] = Phase 3, blinded analysis, result in words
[10] = After 3 months of NE3107 (20 mg BID), result in words
[11] = After 3 months of NE3107 (20 mg BID), size of decrease
[12] = Blood Cell Frequency, 3 months vs baseline, mean
[13] = Blood Cell Frequency, NE3107 20 mg BID, 3 months, mean
[14] = NE3107 20 mg BID, 3 months vs baseline
[15] = NE3107 20 mg BID, 3 months vs baseline, mean
[16] = NE3107 20 mg BID, 3 months, mean
[17] = NE3107 20 mg BID, 3 months, n/N subjects

O=C(c1ccc(Nc2nccc(-c3cc4ccccc4s3)n2)cc1)N1CCC(N2CCCC2)CC1 [IKKi, IKK-16, reference compound]
Fold vs DMSO control P-TNFR1/Actin in Gel2 ([1]; 1 μM, 0 min): 2.09 fold
Fold vs DMSO control P-TNFR1/TNFR1 in Gel2 ([1]; 1 μM, 0 min): 2.92 fold
Fold vs DMSO control P-TNFR1/Actin in Gel2 ([1]; 1 μM, 15 min): 0.92 fold
Fold vs DMSO control P-TNFR1/TNFR1 in Gel2 ([1]; 1 μM, 15 min): 0.59 fold
Fold vs DMSO control P-TNFR1/Actin in Gel2 ([1]; 1 μM, 30 min): 0.49 fold
Fold vs DMSO control P-TNFR1/TNFR1 in Gel2 ([1]; 1 μM, 30 min): 0.30 fold

C#C[C@]1(O)CC[C@H]2[C@@H]3[C@@H](O)C=C4C[C@@H](O)CC[C@]4(C)[C@H]3CC[C@@]21C [NE3107, 17α-ethynylandrost-5-ene-3ϕ3,7ϕ3,17ϕ3-triol]
HOMA2-% B, Change from Baseline [2, 8]: +13.5%, *
HOMA2-% S, Change from Baseline [2, 8]: −21.2%, *
Insulin, Change from Baseline [2, 8]: +1.9 μIU/mL
Leptin, V10 median [2, 8]: 29.2 ng/mL
MAGE, Change from Baseline ([2]; Phase 3, blinded analysis (NE3107 and placebo not separated), from CGM): -0.57 mg/dL
Leptin DNAm [2, 9]: observed to increase
cases of hypoglycemia [2, 9]: no cases of hypoglycemia
Cholesterol, Change from Baseline ([2]; Phase 3, mild to moderate probable AD, blinded analysis (NE3107 and placebo subjects not separated)): +3.0 mg/dL
neuropsychiatric inventory: overall improvement in appetite [3]: −1.0
neuropsychiatric inventory: overall improvement in sleep [3]: −1.0
subjects with increased FDG-PET standardized uptake value ratios (suvr) [4]: 14/24
Fold vs DMSO control P-TNFR1/Actin in Gel2 ([1]; 100 nM, 0 min): 0.32 fold
Fold vs DMSO control P-TNFR1/TNFR1 in Gel2 ([1]; 100 nM, 0 min): 0.27 fold
Fold vs DMSO control P-TNFR1/Actin in Gel2 ([1]; 100 nM, 15 min): 0.79 fold
Fold vs DMSO control P-TNFR1/TNFR1 in Gel2 ([1]; 100 nM, 15 min): 0.57 fold
Fold vs DMSO control P-TNFR1/Actin in Gel2 ([1]; 100 nM, 30 min): 0.23 fold
Fold vs DMSO control P-TNFR1/TNFR1 in Gel2 ([1]; 100 nM, 30 min): 0.17 fold
DNAmCD4Tcell, Change (%) ([5]; 3 months vs baseline): (18%)
DNAmCD8Tcell, Change (%) ([5]; 3 months vs baseline): (12%)
DNAmGranulocyte, Change (%) ([5]; 3 months vs baseline): (2.2%)
DNAmNKcell, Change (%) ([5]; 3 months vs baseline): (0.5%)
changes in DNAmT, DNAmNK or DNAmGran [5, 10]: no significant changes
DNAmPackYears decreased by [5, 11]: 39%
SkinBloodAge decreased by a mean of [5, 11]: 3.3 years
DNAmCD4Tcell, Change [5, 12]: −0.033
DNAmCD8Tcell, Change [5, 12]: −0.002
DNAmGranulocyte, Change [5, 12]: −0.015
DNAmNKcell, Change [5, 12]: −0.0003
DNAmCD4Tcell, 3 Months [5, 13]: 0.152
DNAmCD8Tcell, 3 Months [5, 13]: 0.013
DNAmGranulocyte, 3 Months [5, 13]: 0.653
DNAmNKcell, 3 Months [5, 13]: 0.063
DNAmPackYears, Change (%) [5, 14]: (39%)
DNAmSkinBlood, Change (%) [5, 14]: (−4.6%)
DNAmMonocytes, Change [5, 15]: −0.022 Freq
DNAmPackYears, Change [5, 15]: −9.4
DNAmSkinBlood, Change [5, 15]: −3.3 years
DNAmSkinBlood, 3 Months ([5]; NE3107 20 mg BID, 3 months, MCI/probable AD subjects (CDR 0.5-1), whole blood, mean): 67.5 years
DNAmMonocytes, 3 Months [5, 16]: 0.054 Freq
DNAmPackYears, 3 Months [5, 16]: 14.6
DNAmLeptin, Frequency (subjects with decrease) [5, 17]: 22/22
DNAmMonocytes, Frequency (subjects with decrease) [5, 17]: 17/22
DNAmPackYears, Frequency (subjects with decrease) [5, 17]: 21/22
DNAmSkinBlood, Frequency (subjects with decrease) [5, 17]: 19/22
related AEs ([6]; Phase 3, 439 subjects enrolled): 9.8%
related AEs categorized as non-serious ([6]; Phase 3, 439 subjects enrolled): 0.6%
serious AEs reported ([6]; Phase 3, 439 subjects enrolled): 2.7%
subjects discontinued due to a reported AE ([6]; Phase 3, 439 subjects enrolled): 1.8%
subjects who experienced 1 or more AEs ([6]; Phase 3, 439 subjects enrolled): 35.5%
serious AEs that resulted in death ([6]; Phase 3, count): 1
vMRI volume in the hippocampus and amygdala [7]: increased
change in monocyte frequency (Monocytes; [10]): no significant change
Monocytes, Change (%) (Monocytes; [14]): (1.5%)
Monocytes, Change (Monocytes; [15]): −0.001 Freq
Monocytes, 3 Months (Monocytes; [16]): 0.085 Freq
